Reference: article PMC6703856 (Biochemistry, 2019)
Read-outs that look alike come from different tables or passages of the source.

Experiments:
MBP I329W mutant = MBP I329W mutant (Escherichia coli, UniProt P0AEX9, I355W); experiment: Maltose fluorescence titration, peak wavelength of tryptophan fluorescence; assay type: binding; conditions: I329W mutant relative to wild-type protein
[1] = tested on: NBD-labelled MBP (cysteine mutation at Ser337); assay type: binding, Escherichia coli

## OC[C@H]1O[C@H](O[C@H]2[C@H](O)[C@@H](O)C(O)O[C@@H]2CO)[C@H](O)[C@@H](O)[C@@H]1O (mixture of isomers) [maltose]
MBP I329W mutant
  increase in maltose binding affinity: 100 fold
[1]; monitored by NBD fluorescence intensity
  weakening of maltose affinity by the NBD dye: 24 fold
[1]; monitored by peak wavelength of tryptophan fluorescence
  weakening of maltose affinity by the NBD dye: 5 fold

## bovine serum albumin [BSA]
[1]; 100 g/L BSA, NBD fluorescence
  increase in maltose Kd;app: 16 fold
